Test system: rat trachea rings
Assay: Tracheal relaxation assay (carbachol precontracted rings);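 also: isometric tension of rat tracheal rings in Krebs buffer with 1 µM indomethacin, compounds added cumulatively at 30 min intervals, basal tension subtracted, fit to Hill equation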
Conditions: for Percentage of carbachol-induced contraction at 1 μM compound, Avg % / Percentage of carbachol-induced contraction at 10 μM compound, Avg %: 1 μM carbachol; for IC50: Rattus norvegicus, read-out: IC50 Avg; for Trachael Ring Contraction, %: average percentage of carbachol-induced rat tracheal ring contraction at 1 μM of test compound
Method: The effects of compounds to induce relaxation of pre-contracted rat trachealis were determined. […] Trachea were excised, cleaned of connective tissue and cut into cylindrical segments of 2-3 mm length. Two stainless steel wires were guided through the lumen of the tracheal ring. One wire was fixed in the tissue bath and the other was connected to a force transducer via surgical silk. […] Indomethacin (1 μM), a cyclooxygenase inhibitor, was added to the Krebs buffer and was present throughout the experiments. Contractile tensions were measured using an isometric force transducer (Grass Instruments) and signals were analyzed using specialized software (Chart v5.5, ADInstruments). The preparations were allowed to equilibrate at a resting tension of 0.3 to 0.5 gm prior to two challenges with 60 mM KCl to assess tissue viability. After washing, tissues were treated with 1 μM carbachol for 10 to 15 minutes to induce a contractile response. Test Compounds were added cumulatively to the bath every 30 minutes and reductions in tension were recorded. Basal tension was subtracted from all values and data were reported as a percentage of the maximal carbachol-induced contraction. Data were fit to the Hill equation using GraphPad Prism v5 software.

Row | Structure (SMILES) | Percentage of carbachol-induced contraction at 1 μM compound, Avg % [%] | Percentage of carbachol-induced contraction at 10 μM compound, Avg % [%] | IC50 [µM] | Trachael Ring Contraction, % [%]
1 | Fc1ccc(CN2CCC[C@H](Nc3ccc4[nH]ncc4c3)C2)cc1F [Compound 1.072, (S)-N-(1-(3,4-difluorobenzyl)piperidin-3-yl)-1H-indazol-5-amine] | 33.1 | – | – | –
2 | CSc1ccc(CN2CCC[C@@H](Nc3ccc4[nH]ncc4c3)C2)cc1 [Compound 1.074, (R)-N-(1-(4-(methylthio)benzyl)piperidin-3-yl)-1H-indazol-5-amine] | 39.6 | −15.1 | 0.729 | 40
3 | CSc1ccc(CN2CCC[C@H](Nc3ccc4[nH]ncc4c3)C2)cc1 [Compound 1.075, (S)-N-(1-(4-(methylthio)benzyl)piperidin-3-yl)-1H-indazol-5-amine] | 39.1 | – | – | 39
4 | Cc1ccc(CN2CCC[C@H](Nc3ccc4[nH]ncc4c3)C2)cc1 [Compound 1.078, (S)-N-(1-(4-methylbenzyl)piperidin-3-yl)-1H-indazol-5-amine] | 39.6 | – | – | –
5 | NC(=O)Cn1ccc2ccc(CN3CCC[C@H](Nc4ccc5[nH]ncc5c4)C3)cc21 [Compound 1.107, (S)-2-(6-((3-(1H-indazol-5-ylamino)piperidin-1-yl)methyl)-1H-indol-1-yl)acetamide] | – | 9.9 | 1.24 | –
6 | CCS(=O)(=O)Nc1cccc(CN2CCC[C@@H](Nc3ccc4[nH]ncc4c3)C2)c1 [Compound 1.123, (R)-N-(3-((3-(1H-indazol-5-ylamino)piperidin-1-yl)methyl)phenyl)ethanesulfonamide] | 46.7 | 4.6 | 0.045 | 47
7 | CCS(=O)(=O)Nc1cccc(CN2CCC[C@H](Nc3ccc4[nH]ncc4c3)C2)c1 [Compound 1.124, (S)-N-(3-((3-(1H-indazol-5-ylamino)piperidin-1-yl)methyl)phenyl)ethanesulfonamide] | 37.8 | 19.7 | 0.021 | 38
8 | Clc1ccc(CN2CCC[C@@H](Nc3ccc4[nH]ncc4c3)C2)cc1 [Compound 1.132, (R)-N-(1-(4-chlorobenzyl)piperidin-3-yl)-1H-indazol-5-amine] | 42.4 | – | – | 42
9 | Clc1ccc(CN2CCC[C@H](Nc3ccc4[nH]ncc4c3)C2)cc1 [Compound 1.141, (S)-N-(1-(4-chlorobenzyl)piperidin-3-yl)-1H-indazol-5-amine] | 35.3 | – | – | 35
10 | c1cc2ccc(CN3CCC[C@H](Nc4ccc5[nH]ncc5c4)C3)cc2[nH]1 [Compound 1.148, (S)-N-(1-((1H-indol-6-yl)methyl)piperidin-3-yl)-1H-indazol-5-amine] | 51.2 | – | – | 51
11 | c1cc2cc(CN3CCC[C@H](Nc4ccc5[nH]ncc5c4)C3)ccc2[nH]1 [Compound 1.149, (S)-N-(1-((1H-indol-5-yl)methyl)piperidin-3-yl)-1H-indazol-5-amine] | 34.4 | – | – | 34
12 | c1cc2cc(CN3CCC[C@H](Nc4ccc5[nH]ncc5c4)C3)ccc2o1 [Compound 1.150, (S)-N-(1-(benzofuran-5-ylmethyl)piperidin-3-yl)-1H-indazol-5-amine] | 39.7 | – | – | 40
13 | Cc1ccc(CN2CCC[C@H](Nc3ccc4[nH]ncc4c3)C2)cc1O [Compound 1.151, (S)-5-((3-(1H-indazol-5-ylamino)piperidin-1-yl)methyl)-2-methylphenol] | 33.1 | – | – | –

Source: patent publication US20130172324A1, “METHOD FOR TREATING CARDIOVASCULAR DISEASES USING RHO KINASE INHIBITOR COMPOUNDS” (priority 2008, published 2013)
